# From ChEMBL document CHEMBL1201862, “PubChem BioAssay data set” (2004)
# Activity calls are given as the source filed them.
# Tests used:
# [1] = system: Streptococcus sp. 'group A'; experiment: growth inhibition of control SK(-) GAS strain, dose response, counter-screen for streptokinase expression inhibitor project, luminescence, kanamycin, BacTiterGlo, confirmation (AID 1900); assay type: functional, organism-based
# [2] = inhibitors of SNCA 5'UTR-driven reporter translation, confirmation, H4 neuroglioma cells, luminescence (AID 1988); assay type: functional, cell-based
# [3] = microbe, parasite or virus in culture; assay type: functional; conditions: Mycobacterium tuberculosis
# [4] = system: Streptococcus; experiment: Group A Streptococcus viability loss, dose response, counter-screen for streptokinase expression inhibitor project, luminescence, BacTiterGlo (AID 1915); assay type: functional, organism-based;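 further: potency for reduction of bacterial viability or growth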
# [5] = molecular target: T1, Replicative DNA helicase DnaB (Mycobacterium tuberculosis, UniProt P9WMR3); experiment: DnaB intein splicing inhibitors, dose response, biochemical, cell-free fluorescence (AID 449749); assay type: functional
# T1 sequence (P9WMR3 whole entry): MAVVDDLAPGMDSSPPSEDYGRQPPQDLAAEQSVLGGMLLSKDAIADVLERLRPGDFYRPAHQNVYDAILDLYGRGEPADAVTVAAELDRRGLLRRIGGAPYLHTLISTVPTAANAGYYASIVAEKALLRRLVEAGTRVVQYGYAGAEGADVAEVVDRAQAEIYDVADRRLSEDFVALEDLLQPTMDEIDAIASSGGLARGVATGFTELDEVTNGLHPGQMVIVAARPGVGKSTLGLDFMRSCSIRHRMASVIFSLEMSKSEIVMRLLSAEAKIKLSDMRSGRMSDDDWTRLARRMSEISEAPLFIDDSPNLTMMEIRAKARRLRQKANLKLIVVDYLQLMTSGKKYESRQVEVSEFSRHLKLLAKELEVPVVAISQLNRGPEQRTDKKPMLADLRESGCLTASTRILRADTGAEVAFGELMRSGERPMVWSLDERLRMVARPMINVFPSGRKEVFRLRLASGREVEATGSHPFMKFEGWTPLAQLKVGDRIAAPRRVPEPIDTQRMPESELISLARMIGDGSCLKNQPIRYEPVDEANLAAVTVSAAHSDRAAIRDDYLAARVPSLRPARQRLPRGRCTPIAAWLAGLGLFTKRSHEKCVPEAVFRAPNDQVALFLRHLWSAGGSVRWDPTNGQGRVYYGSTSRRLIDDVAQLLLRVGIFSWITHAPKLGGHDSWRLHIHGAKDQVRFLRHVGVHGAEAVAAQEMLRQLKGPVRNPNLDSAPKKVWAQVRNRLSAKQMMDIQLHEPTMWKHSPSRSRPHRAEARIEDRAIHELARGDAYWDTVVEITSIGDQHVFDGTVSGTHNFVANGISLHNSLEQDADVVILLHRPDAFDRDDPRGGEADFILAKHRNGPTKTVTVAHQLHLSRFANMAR
# [6] = molecular target: T2, Protein RecA (Mycobacterium tuberculosis, UniProt P9WHJ3); experiment: Fluorescence Cell-Free Homogeneous Dose Retest to Identify Inhibitors of RecA-Intein Splicing Activity. [Related pubchem assays (depositor defined):AID2097, AID2223, AID489010, AID492950]; assay type: functional
# T2 sequence (P9WHJ3 whole entry): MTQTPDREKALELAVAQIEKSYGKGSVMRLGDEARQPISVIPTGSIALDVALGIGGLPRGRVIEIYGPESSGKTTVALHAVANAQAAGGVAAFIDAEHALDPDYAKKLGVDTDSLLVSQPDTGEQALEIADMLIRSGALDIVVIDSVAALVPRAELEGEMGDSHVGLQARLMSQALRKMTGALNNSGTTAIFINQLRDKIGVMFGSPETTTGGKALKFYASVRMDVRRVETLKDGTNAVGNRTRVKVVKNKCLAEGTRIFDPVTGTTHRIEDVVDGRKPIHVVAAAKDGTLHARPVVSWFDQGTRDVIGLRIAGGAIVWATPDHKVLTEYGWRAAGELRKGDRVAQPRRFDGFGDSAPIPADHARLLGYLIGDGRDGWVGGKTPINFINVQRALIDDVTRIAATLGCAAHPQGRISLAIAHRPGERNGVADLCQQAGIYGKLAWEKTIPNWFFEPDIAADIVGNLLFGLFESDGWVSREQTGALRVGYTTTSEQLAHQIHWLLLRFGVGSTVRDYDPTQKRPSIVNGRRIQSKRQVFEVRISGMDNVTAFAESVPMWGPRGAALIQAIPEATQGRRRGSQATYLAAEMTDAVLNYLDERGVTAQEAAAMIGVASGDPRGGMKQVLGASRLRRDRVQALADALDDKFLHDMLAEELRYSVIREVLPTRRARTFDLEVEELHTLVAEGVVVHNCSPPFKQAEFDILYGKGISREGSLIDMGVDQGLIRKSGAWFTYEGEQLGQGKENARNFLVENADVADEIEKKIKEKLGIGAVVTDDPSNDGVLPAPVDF
# [7] = molecular target: T3, Alkaline phosphatase, tissue-nonspecific isozyme (Homo sapiens, UniProt P05186); experiment: TNAP enzyme inhibition by screening hits, dose response, selectivity assay for mouse IAP inhibitor project, biochemical, human TNAP, uHTS hits (AID 488906); assay type: functional
# T3 sequence (P05186 whole entry): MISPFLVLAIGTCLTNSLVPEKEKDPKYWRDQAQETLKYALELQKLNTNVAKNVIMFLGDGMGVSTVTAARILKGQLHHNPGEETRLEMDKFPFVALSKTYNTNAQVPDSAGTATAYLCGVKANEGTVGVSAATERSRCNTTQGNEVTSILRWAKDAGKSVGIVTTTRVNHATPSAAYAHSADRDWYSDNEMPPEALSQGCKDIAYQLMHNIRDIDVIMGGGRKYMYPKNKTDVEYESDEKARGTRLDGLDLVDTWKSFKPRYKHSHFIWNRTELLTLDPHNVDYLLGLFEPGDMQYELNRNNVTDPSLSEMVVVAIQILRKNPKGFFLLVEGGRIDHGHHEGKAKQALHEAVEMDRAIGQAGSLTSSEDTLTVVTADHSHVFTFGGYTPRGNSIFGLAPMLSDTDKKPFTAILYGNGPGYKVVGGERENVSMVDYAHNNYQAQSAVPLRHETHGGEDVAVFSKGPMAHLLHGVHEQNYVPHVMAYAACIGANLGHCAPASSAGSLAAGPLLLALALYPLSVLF
# [8] = molecular target: Fatty acid synthase (Homo sapiens, UniProt P49327); experiment: FAS thioesterase domain inhibitors, dose response, biochemical, endpoint fluorescence intensity, uHTS hits (AID 624327); assay type: functional;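 further: fluorescence from hydrolysis of an O-methyl fluorescein acyl ester substrate by the enzyme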
# Sequence of Fatty acid synthase (P49327 whole entry, the tested form may be a part): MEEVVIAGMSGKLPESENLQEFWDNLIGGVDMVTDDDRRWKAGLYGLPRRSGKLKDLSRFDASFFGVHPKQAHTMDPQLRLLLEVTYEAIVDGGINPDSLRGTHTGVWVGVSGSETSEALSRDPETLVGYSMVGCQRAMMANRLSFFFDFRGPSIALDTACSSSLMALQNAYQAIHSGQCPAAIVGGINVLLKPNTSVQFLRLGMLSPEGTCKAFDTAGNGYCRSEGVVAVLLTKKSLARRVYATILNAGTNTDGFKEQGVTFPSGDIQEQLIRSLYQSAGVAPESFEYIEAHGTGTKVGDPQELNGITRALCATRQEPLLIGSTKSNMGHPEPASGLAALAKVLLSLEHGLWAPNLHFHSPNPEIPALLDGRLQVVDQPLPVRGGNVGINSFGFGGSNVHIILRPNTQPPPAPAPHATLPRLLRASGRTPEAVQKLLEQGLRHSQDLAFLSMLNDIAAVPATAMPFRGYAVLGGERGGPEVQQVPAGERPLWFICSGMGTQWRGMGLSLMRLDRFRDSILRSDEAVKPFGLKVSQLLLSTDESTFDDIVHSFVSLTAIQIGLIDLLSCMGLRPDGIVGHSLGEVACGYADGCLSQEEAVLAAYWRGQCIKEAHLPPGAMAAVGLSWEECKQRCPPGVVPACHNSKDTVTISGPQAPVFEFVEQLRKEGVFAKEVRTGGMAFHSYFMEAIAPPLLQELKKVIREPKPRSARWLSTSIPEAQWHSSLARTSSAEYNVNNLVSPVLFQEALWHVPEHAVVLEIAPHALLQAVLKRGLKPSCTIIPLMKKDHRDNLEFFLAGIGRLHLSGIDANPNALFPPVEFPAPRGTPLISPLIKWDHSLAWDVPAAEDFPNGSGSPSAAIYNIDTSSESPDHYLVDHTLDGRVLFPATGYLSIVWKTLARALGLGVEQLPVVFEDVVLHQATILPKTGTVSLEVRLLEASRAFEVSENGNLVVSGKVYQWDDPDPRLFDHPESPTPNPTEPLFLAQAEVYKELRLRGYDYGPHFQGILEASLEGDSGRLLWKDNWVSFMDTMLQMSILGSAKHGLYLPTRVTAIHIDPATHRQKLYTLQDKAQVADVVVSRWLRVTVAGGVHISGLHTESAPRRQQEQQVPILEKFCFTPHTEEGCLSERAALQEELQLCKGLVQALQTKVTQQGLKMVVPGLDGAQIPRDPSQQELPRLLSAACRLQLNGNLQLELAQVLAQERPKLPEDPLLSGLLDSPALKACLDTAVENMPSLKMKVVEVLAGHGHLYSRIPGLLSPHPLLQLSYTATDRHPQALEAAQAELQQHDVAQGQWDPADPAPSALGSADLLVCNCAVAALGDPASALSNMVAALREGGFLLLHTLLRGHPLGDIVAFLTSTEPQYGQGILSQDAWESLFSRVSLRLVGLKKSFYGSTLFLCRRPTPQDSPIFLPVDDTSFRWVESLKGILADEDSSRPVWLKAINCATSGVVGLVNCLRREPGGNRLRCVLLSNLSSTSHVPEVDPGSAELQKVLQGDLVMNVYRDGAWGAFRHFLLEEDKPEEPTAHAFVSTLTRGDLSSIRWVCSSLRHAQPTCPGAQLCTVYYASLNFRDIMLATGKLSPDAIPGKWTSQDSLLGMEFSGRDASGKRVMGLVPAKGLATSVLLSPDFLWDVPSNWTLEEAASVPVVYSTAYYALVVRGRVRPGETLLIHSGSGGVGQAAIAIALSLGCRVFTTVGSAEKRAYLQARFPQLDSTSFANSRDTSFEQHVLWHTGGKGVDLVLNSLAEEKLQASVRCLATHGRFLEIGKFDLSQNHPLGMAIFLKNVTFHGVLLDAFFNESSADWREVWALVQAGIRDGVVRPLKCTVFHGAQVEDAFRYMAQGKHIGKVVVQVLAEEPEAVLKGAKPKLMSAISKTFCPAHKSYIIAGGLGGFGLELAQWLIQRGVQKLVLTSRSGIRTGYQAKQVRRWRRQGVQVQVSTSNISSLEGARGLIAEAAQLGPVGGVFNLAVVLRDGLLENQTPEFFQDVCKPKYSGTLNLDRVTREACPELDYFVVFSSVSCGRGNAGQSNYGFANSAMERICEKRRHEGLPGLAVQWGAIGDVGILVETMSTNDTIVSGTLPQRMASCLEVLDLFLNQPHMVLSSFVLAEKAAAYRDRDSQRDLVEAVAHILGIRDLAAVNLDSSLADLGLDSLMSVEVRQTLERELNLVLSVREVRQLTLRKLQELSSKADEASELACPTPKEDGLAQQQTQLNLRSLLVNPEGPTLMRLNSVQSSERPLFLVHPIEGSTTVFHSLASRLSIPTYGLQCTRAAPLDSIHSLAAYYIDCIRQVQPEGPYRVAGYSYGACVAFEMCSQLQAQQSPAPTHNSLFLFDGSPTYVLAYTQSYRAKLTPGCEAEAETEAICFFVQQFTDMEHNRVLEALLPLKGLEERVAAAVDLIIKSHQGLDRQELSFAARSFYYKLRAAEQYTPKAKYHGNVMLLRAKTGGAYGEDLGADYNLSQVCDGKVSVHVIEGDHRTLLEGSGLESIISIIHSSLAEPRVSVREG
# [9] = molecular target: Caspase-9 (Homo sapiens, UniProt P55211); experiment: caspase-9 enzyme inhibition, dose response, selectivity assay for caspase-6 inhibitor project, biochemical, fluorescence, plate reader, cherry-picked samples (AID 743293)
# Sequence of Caspase-9 (P55211 1-315 limits assumed): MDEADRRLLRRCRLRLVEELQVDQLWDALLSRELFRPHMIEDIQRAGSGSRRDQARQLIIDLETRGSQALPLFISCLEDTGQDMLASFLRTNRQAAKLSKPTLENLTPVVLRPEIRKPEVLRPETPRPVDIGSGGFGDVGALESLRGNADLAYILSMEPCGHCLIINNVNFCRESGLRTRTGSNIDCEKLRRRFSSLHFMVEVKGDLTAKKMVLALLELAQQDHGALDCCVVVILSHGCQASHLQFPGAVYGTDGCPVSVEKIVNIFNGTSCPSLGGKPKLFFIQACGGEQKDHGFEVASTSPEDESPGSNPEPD
# Sequence of Caspase-9 (P55211 331-416 limits assumed): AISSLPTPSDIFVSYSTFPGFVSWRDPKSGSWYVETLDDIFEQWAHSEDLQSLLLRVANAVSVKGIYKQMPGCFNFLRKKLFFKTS
# [10] = molecular target: 1-phosphatidylinositol 4,5-bisphosphate phosphodiesterase gamma-1 (Homo sapiens, UniProt P19174); experiment: Counterscreen for inhibitors of phospholipase C isozymes (PLC-B3): Fluorescence-based biochemical high throughput dose response assay to identify inhibitors of phospholipase C isozymes (PLC-gamma1).
# Sequence of 1-phosphatidylinositol 4,5-bisphosphate phosphodiesterase gamma-1 (P19174 whole entry): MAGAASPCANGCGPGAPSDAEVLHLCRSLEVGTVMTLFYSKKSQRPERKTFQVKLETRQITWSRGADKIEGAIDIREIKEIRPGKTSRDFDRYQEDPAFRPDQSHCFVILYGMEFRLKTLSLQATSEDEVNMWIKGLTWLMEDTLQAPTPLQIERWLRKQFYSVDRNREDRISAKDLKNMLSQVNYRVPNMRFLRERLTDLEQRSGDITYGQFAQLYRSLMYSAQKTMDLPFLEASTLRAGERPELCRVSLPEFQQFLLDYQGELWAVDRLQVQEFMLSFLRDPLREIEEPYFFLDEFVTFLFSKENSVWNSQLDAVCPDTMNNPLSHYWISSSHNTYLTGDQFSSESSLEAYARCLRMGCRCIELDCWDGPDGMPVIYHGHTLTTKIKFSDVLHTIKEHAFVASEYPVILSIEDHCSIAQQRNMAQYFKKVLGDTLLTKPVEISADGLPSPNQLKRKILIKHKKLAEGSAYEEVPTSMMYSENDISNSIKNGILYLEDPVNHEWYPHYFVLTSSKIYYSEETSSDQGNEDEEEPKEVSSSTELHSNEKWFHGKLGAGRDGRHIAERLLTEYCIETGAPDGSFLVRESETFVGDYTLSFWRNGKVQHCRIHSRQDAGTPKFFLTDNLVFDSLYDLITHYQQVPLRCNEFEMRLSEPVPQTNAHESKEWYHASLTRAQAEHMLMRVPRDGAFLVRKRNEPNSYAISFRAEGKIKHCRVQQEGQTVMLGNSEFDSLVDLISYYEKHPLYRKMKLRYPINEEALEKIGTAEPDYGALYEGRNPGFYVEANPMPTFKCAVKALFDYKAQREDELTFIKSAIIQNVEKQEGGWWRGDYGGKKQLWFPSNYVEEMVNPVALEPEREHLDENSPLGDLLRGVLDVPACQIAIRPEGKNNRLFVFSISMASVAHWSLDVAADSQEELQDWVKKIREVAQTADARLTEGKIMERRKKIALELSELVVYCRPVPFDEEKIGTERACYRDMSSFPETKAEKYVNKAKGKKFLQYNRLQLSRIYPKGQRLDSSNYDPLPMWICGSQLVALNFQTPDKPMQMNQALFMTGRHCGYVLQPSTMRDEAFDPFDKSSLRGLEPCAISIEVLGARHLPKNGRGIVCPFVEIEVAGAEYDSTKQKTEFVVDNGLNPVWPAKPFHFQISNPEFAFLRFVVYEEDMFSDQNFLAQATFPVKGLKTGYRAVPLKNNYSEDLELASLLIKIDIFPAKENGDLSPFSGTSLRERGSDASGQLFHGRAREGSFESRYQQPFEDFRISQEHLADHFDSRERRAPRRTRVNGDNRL
# [11] = system: INS1; experiment: beta cell apoptosis inhibitors, cytokine rescue, dose response, luminescence, retest (AID 449756); assay type: functional, cell-based; conditions: Rattus norvegicus;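 further: cell death triggered by IL-1 beta plus TNF-alpha plus IFN-gamma mixture; protective hits raise ATP signal compared with cytokine alone wells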
# [12] = off-target signal loss in HeLa-CEM21 co-culture – HeLa F-luc CTL cells, cherry-picked, counter-screen for HIV-1 Env fusion inhibitor project, dose response (AID 652040); assay type: functional, cell-based;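 further: potency for signal decrease marking cytotoxic or nonspecific inhibition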
Structure (SMILES),EC50 [1],EC50 [2],CC50 [3],EC50 [4],AC50 [5],EC50 [6],IC50 [7],IC50 [8],AC50 [9],IC50 [10],AC50 [11],AC50 [12]
Cc1oc2c(c1C(=O)NCc1cccnc1)C(=O)c1ccccc1C2=O,1.31 µM (active),< 0.1 µM (active),0.295 µM (active),2.56 µM (active),0.438 µM (active),0.0639 µM (active),,,,,,
O=c1ccc2c(-c3ccccc3S(=O)(=O)O)c3ccc(O)c(O)c3oc-2c1O [PYROGALLOL RED],,,,,,,24.1 µM (active),16.2 µM (active),> 70 µM (inactive),14.2 µM (inactive),,
CCCCCCCCCCOC(=O)C[n+]1c(COc2ccccc2OC)n(C)c2ccccc21,6.69 µM (active),,,12.7 µM (active),3.92 µM (active),8.91 µM (active),,,,,1.04 µM (active),12.3 µM (active)
